System: KM mice
Experiment: Test for drug-induced disappearance of righting reflex in mice
Type: in vivo
Conditions: single rapid bolus via tail vein
Source text: In anesthetic drug experiments, latency generally refers to the time from the start of administration to the loss of consciousness of the subject. The shorter latency is preferred, indicating a rapid onset of action after administration. The duration of anesthesia generally refers to the duration of time from the loss of consciousness to the restoration of consciousness of the subject. The duration of the drug will vary from animal model to animal species. Too long anesthesia may produce adverse cardiovascular and respiratory responses, such as adverse neurological effects to the subject, including sleepiness and dizziness; meanwhile, too short duration of anesthesia may affect the anesthesia effect, causing problems such as increase of anesthesia dosage during the operation.
KM mice (female, 18-25 g) were randomly grouped and subjected to a single administration by rapid bolus via the tail vein. The latency and duration of disappearance of righting reflex in the mice were recorded.

| Structure (SMILES) | Duration (30 mg/kg) | Latency (30 mg/kg) | Duration (60 mg/kg) | Latency (60 mg/kg) |
| --- | --- | --- | --- | --- |
| COC(=O)CC[C@@H]1N=C(c2ccccc2Cl)c2cc(Cl)ccc2-n2c(S)nnc21 [Compound 2, methyl (S)-3-(8-chloro-6-(2-chlorophenyl)-1-mercapto-4H-benzo[f][1,2,4]triazolo[4,3-a][1,4]diazepin-4-yl)propionate] | 5.27 min | 0.58 min | – | – |
| COC(=O)CC[C@@H]1N=C(c2ccccn2)c2cc(Br)ccc2-n2c(S)nnc21 [Compound 3, methyl (S)-3-(8-bromo-6-(pyridin-2-yl)-1-mercapto-4H-benzo[f][1,2,4]triazolo[4,3-a][1,4]diazepin-4-yl)propionate] | 7.37 min | 0.48 min | – | – |
| COC(=O)CC[C@@H]1N=C(c2ccccc2)c2ccccc2-n2c(S)nnc21 [Compound 5, methyl (S)-3-(6-phenyl-1-mercapto-4H-benzo[f][1,2,4]triazolo[4,3-a][1,4]diazepin-4-yl)propionate] | 13.27 min | 1.11 min | – | – |
| COC(=O)CC[C@@H]1N=C(c2ccc(F)cc2)c2ccccc2-n2c(S)nnc21 [Compound 6, methyl (S)-3-(6-(4-fluorophenyl)-1-mercapto-4H-benzo[f][1,2,4]triazolo[4,3-a][1,4]diazepin-4-yl)propionate] | 9.93 min | 0.59 min | – | – |
| COC(=O)CC[C@@H]1N=C(c2ccccc2)c2cc(Cl)ccc2-n2c(S)nnc21 [Compound 7, methyl (S)-3-(8-chloro-6-phenyl-1-mercapto-4H-benzo[f][1,2,4]triazolo[4,3-a][1,4]diazepin-4-yl)propionate] | 12.26 min | 1.14 min | – | – |
| COC(=O)CC[C@@H]1N=C(c2ccccc2F)c2cc(Cl)ccc2-n2c(SC)nnc21 [Compound 8, methyl (S)-3-(8-chloro-6-(2-fluorophenyl)-1-(methylthio)-4H-benzo[f][1,2,4]triazolo[4,3-a][1,4]diazepin-4-yl)propionate] | 8.35 min | 0.36 min | – | – |
| COC(=O)CC[C@@H]1N=C(c2ccccc2F)c2cc(Br)ccc2-n2c(SC)nnc21 [Compound 9, methyl (S)-3-(8-bromo-6-(2-fluorophenyl)-1-(methylthio)-4H-benzo[f][1,2,4]triazolo[4,3-a][1,4]diazepin-4-yl)propionate] | 12.12 min | 0.84 min | – | – |
| CCSc1nnc2n1-c1ccc(Cl)cc1C(c1ccccc1F)=N[C@H]2CCC(=O)OC [Compound 11, methyl (S)-3-(8-chloro-6-(2-fluorophenyl)-1-(ethylthio)-4H-benzo[f][1,2,4]triazolo[4,3-a][1,4]diazepin-4-yl)propionate] | 6.37 min | 0.77 min | 7.98 min | 0.83 min |
| CCSc1nnc2n1-c1ccc(Br)cc1C(c1ccccc1F)=N[C@H]2CCC(=O)OC [Compound 12, methyl (S)-3-(8-bromo-6-(2-fluorophenyl)-1-(ethylthio)-4H-benzo[f][1,2,4]triazolo[4,3-a][1,4]diazepin-4-yl)propionate] | 17.21 min | 0.74 min | – | – |
| CCCSc1nnc2n1-c1ccc(Cl)cc1C(c1ccccc1F)=N[C@H]2CCC(=O)OC [Compound 14, methyl (S)-3-(8-chloro-6-(2-fluorophenyl)-1-(propylthio)-4H-benzo[f][1,2,4]triazolo[4,3-a][1,4]diazepin-4-yl)propionate] | 9.12 min | 0.78 min | – | – |
| CCCSc1nnc2n1-c1ccc(Br)cc1C(c1ccccc1F)=N[C@H]2CCC(=O)OC [Compound 15, methyl (S)-3-(8-bromo-6-(2-fluorophenyl)-1-(propylthio)-4H-benzo[f][1,2,4]triazolo[4,3-a][1,4]diazepin-4-yl)propionate] | 8.47 min | 1.03 min | – | – |

Reference: patent publication US20230416258A1, “BENZ[…], AND PREPARATION METHOD THEREFOR AND USE THEREOF” (CHINA PHARMACEUTICAL UNIVERSITY, priority 2020, published 2023)
